Reference: patent US6482609B1, “Isolated human EDG-4 receptor and polynucletide encoding said receptor” (priority 1997, dated 2002)
Where two headings read alike, the source gives them in different places.

Tests used:
human EDG-4 = human EDG-4 (Homo sapiens, UniProt O95136); experiment: SRE luciferase reporter in 293-EBNA cells, human EDG-4; type: cell-based; conditions: for EC50: 293-EBNA expressing human EDG-4, luciferase after 6 hr, pcDNA3 response subtracted; for Agonist character at EDG-4: conclusion from the reporter assay of Table 2; for Rank (EMax): rank of efficacy among compounds tested
Description: NE-κB activates gene expression by binding to specific DNA sequences found in the promoters of genes regulated by this inflammation-related transcription factor. […] The SRE reporter was identical to the NF-κB reporter, except that the NF-κB binding sites were replaced with 2 SRE sites. The new reporter was called 2XSREtk-p4Luc-zeo.
The protocol described in Example 11 for Assay 1 was followed except for the following changes:
2) SRE Cotransfection: 0.5 μg of 2XSREtk-p4Luc-zeo reporter DNA and 3.5 μg pcDNA3, EDG-1, EDG-3 (pC3-hE3HP2, different from the clone used in Assay 2 of Example 11) or the newly cloned human EDG-4 (pC3-hedg4#36); NF-κB Cotransfection: 2 μg 6XNFκBtk-p4Luc-zeo reporter DNA and 2.0 μg pcDNA3, EDG-1, EDG-3 (pC3-hE3HP2), or EDG-4 (pC3-hedg4#36). Expression plasmid and reporter plasmid DNA samples were combined and diluted in 750 μl of DMEM/F12 (serum free media) and 20 μl Plus Reagent (Lipofectamine Plus Kit, Life Technologies Cat. 10964-013), and incubated at room temperature for 15 min.
1) Media was removed and cells treated with compounds diluted in DMEM/F12 media.
2) The cells were treated for 6 hours.
3) Luciferase assay was performed.
Transfection was accomplished using the Lipofectamine Plus kit (Life Technologies, Cat. 10964-013), using the manufacturer's recommended conditions.
(§1) Transfection of EDG-4, expression, pretreatment and treatment of 293-EBNA cells expressing recombinant human EDG-4 was carried out essentially as described in “Example 11. […] Results were tabulated in Microsoft Excel, and analyzed with GraphPad Prism software. […] The luciferase response was expressed as fold response, after subtracting any endogenous response in pcDNA3-transfected cells at a given concentration of compound.

[1] = test system: Human Umbilical Vein Endothelial Cells (HUVEC); experiment: IL-8 ELISA on primary cultured HUVEC treated with lysolipids; type: cell-based; conditions: 6 hr treatment
Description: Plating, Pretreatment and Treatment of HUVEC
Procedures were followed as detailed above in “Procedure #1 for HeLa Cells” with the following exceptions:
Cells were plated at 20,000 cells/well into 24-well plates. The next day, cells were serum-starved overnight in EBM medium (Clonetics) with 0.5% FBS, and then treated in EBM without FBS for 6 hr with the following lysolipids:
Supematants were collected and IL-8 levels were deternined using ELISA as described previously.

[2] = test system: 293-EBNA cells expressing recombinant human EDG-4; experiment: Cytotoxicity seen in the EDG-4 agonist reporter assay (293-EBNA cells); type: cell-based
Description: as §1

HeLa cells [3] = experiment: IL-8 ELISA on supernatants of treated HeLa cells; type: cell-based, human; conditions: for Inhibition of IL-8 response to S1P by antioxidants: NDGA 10 or 40 μM, NAC 30 mM
Description: Procedure #1 For HeLa Cells
Cells: HeLa (adenocarcinoma, human)
Media: DMEM/F12+10%FBS adherent
1) Cells were seeded at 0.2×10^6 cells/well in 6-well plates.
2) 1.5 ml 0.5% FBS media was added to each well.
1) Made up all required solutions in 0.5% FBS media (control). Handling of […] for use in NF-κB experiments requires that sonication, commonly used to resuspend LPA, not be done; NF-κB may be activated by lipid peroxides created through vigorous frothing.
3) 1.5 ml appropriate treatments were added to each well.
5) After the specified time cell supernatants were collected into 1.5 ml eppendorf tubes, spun down at 14000 rpm for 5 minutes and stored at −20° C. for later ELISA determination.
D. Detection of Interleukin-8 (IL-8) using an IL-8 ELISA (Enzyme-Linked InimunoSorbent Assay).
1) The Quantikine Human IL-8 ImmunoAssay Kit was obtained from R&D Systems (Cat. D8050).
4) The assay procedure was followed as recommended in the kit for cell culture supernatant samples.
5) ELISA was performed on 50 μl samples of culture supernatant and duplicate samples were measured for each well. Each treatment was performed on triplicate wells.
6) Plates were read on UVmax kinetic microplate reader (Molecular Devices), set to 450 nm and correction set to 575 nm, using Wsoftmax software version 2.34.
Procedure #2 For HeLa Cells
1) Cells were seeded at 2.5×10^4 cells/well in 24-well plates.
2) 0.5 ml 0.5% FBS media was added to all wells not requiring PTX pre-treatment.
3) For wells requiring PTX; 0.5 ml 0.5% FBS media containing 50 ng/ml PTX (1 volume PTX (RBI Cat. P140): 1 volume DTT, incubate 37° C. for 30 minutes then dilute to 50 ng/ml) was added.
Follow Procedure #2 For HeLa Cells with the following exceptions:
Concentrations for LPC, LPE, LPG, LPS, sphingosine and SM used were 10, 50, 100, 1000, and 5000 nM. Concentrations for LPI, lyso-PAF and lysosulfatide used were 0.3 and 3 μM.
2) A 30 minute pre-treatment at 37° C./5%CO2 of 0.5 ml of suramin was done to all wells except control, any PTX and ET-18-OCH3 wells before step 3 of section C.

HeLa cells [4] = experiment: Cytotoxicity (viable cell count) in HeLa cells; type: cell-based, human; conditions: 40 μM
Source text: Follow Procedure #2 For HeLa Cells with the following exceptions: […]

rat edg4 = rat edg4 (Rattus norvegicus, UniProt P47752); experiment: NF-κB-tk-p4Luc luciferase reporter in 293-EBNA cells, rat EDG-4; type: cell-based; parameters: expressed in transfected cells; host or cells: 293-EBNA; conditions: pC3-redg4, Assay #1, 24 hrs
Description: Monolayer Transient Transfection Protocol for 293-EBNA
1) 150 mm plates of 293-EBNA obtained from Invitrogen (Cat. R620-07) with a confluency of ˜80% were used for transfection.
2) 6.6 μg NF-κB-tk-p4Luc reporter DNA and 6.6 μg of pC3-redg4 (expressing rat EDG-4), or pcDNA3 DNA was diluted in 500 μl OPTI-MEM (Gibco; Cat. 31985-062)
3) 96.8 μl Lipofectamine (Gibco; Cat. 18324-020) was diluted in 500 μl of OPTI-MEM.
6) 6 ml OPTI-MEM was added to each transfection tube and this was added to a plate of 293-EBNA cells. The plates were left for 4 hrs at 37° C. in a 5% CO2 incubator.
2) 0.02×10^6 cells were plated per well of a 96-well Blackview plate coated with polyD-lysine. No cells were plated in the outside wells of the 96well plate. Two 96-well plates were seeded for each transfection.
1) Cells were washed with PBS and 140 μl serum-free media (SFM) added to each well. Plates were incubated in 37° C. incubator for 6 hrs.
2) After 6 hrs, media was removed and cells treated with compounds diluted in 0.5% FBS media (140 μl added to each well).
3) Cells were treated for 24 hrs.
1) Luclite kit (Packard; Cat. 6016911) was used for luciferase assay. All reagents were brought to room temperature before use.
3) 50 μl 0.5M HEPES pH 7.8 buffer (1 mM MgCl2, 1 mM CaCl2) was added to all wells of 96-well plate. Black adhesive backing (Polyfitronics) was aligned to the bottom of the viewplate.
4) Luclite substrate was made up by adding 10 ml substrate diluent to 1 vial lyophilized substrate. Reconstituted substrate was kept under a dark container. 50 μl substrate was added to each well.
7) After incubation, plates were counted in a 12-detector Packard Top Count on a program without dark delay.
Transient Transfection Protocol for 293-EBNA
The above protocol for assay 1 was followed except for the following changes:
2) 3 μg NFκB-tk-p4Luc reporter DNA and 3 μg pC3-hedg1, pC3-hedg3, pC3-redg4, pC3-hedg5 or pcDNA3 DNA was diluted in 240 μl OPTI-MEM (Gibco; Cat. 31985-062)
1) 0.01×10^6 cells were plated per well of a 96-well Blackview plate coated with polyD-lysine. No cells were plated in the outside wells of the 96-well plate.

HL-60 cells = experiment: IL-8 ELISA on HL-60 cells; type: cell-based, human; conditions: 1, 6 or 24 hr, S1P or LPA up to 3 μM, TNF-α 10 ng/ml
Description: Procedure for HL-60 Cells:
Cells: HL-60 (promyelocytic, human) suspension cells
Media: RPMI 1640 medium with 2 mM L-glutamine adjusted to contain 4.5 g/L glucose, 10 mM HEPES, and 1.0 mM sodium pyruvate+10% FBS
1) Cells were plated at a density of 0.25×10^6 cells/ml.
2) Cell pellcts were resuspended in 0.5% FBS media at a density of approximately 1×10^6 cells/ml.
1) Made up all required solutions in 0.5% FBS media (control).
2) 1.4 ml appropriate treatments were added to each well of a 6-well plate.
5) 100 μl cell suspension was added to each well.
7) After the specified time cell supematants were collected into 1.5 ml eppendorf tubes, spun down at 14000 rpm for 5 minutes and stored at −20° C.
D. Refer to Procedure #1 For HeLa Cells (D).

[5] = S1P 1 μM, 30 minute pre-treatment

rat edg4, sequence (P47752 whole entry): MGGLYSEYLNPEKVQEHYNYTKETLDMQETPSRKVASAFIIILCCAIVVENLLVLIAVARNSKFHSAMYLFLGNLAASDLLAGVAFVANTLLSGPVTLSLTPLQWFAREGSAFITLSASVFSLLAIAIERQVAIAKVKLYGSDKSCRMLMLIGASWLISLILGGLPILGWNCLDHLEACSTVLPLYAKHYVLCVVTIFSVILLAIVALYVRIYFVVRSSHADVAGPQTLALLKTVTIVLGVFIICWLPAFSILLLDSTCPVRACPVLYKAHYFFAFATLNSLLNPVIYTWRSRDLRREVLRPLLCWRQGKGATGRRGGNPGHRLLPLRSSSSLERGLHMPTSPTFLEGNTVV

CCCCCCCCCCCCCCC[C@@H](O)[C@@H](N)COP(=O)(O)O [Dihydro-S1P, dihydrosphingosine 1-phosphate] was tested, and the EC50 (human EDG-4) was 0.53 µM, the “Agonist character at EDG-4” value (human EDG-4) was “partial agonist” and the “Max. Fold” value (human EDG-4; fold luciferase response, 6 hr) was 2.84. The “Rank (EMax)” value (human EDG-4) was 3 and the “EMax (Percent)” value (human EDG-4; relative efficacy, 6 hr) was 49.2%.

CCCCCCCCCCCCCCCCCCOCC(COP(=O)([O-])OCC[N+](C)(C)C)OC (stereo not drawn) [Edelfosine] was tested, and the “IL-8 response (qualitative)” value [1] was “no response”.

In the case of CCCCCCCCCCCCC/C=C/[C@@H](O)C(N)CO[C@@H]1O[C@H](CO)[C@@H](O)[C@H](O)[C@@H]1O (stereo partly drawn) [Glucospychosine, glucopsychosine], the “Concentration at which cytotoxicity was seen” value [2] is reported as “^aCytotoxicity was seen at 10 μM or higher concentrations, preventing quantitative determination of EC50 or EMax”, the “Cytotoxicity (qualitative)” value [2] is reported as “cytotoxicity at higher concentrations” and the EC50 (human EDG-4) is reported as over 10 µM. For the same compound, the “Agonist character at EDG-4” value (human EDG-4) was “poor potency and efficacy” and the “Rank (EMax)” value (human EDG-4) was 4.

CC(=O)N[C@@H](CS)C(=O)O [NAC] was tested, and the “Inhibition of IL-8 response to S1P by antioxidants” value (HeLa cells [3]; [5]) was “significantly inhibited”.

CC(Cc1ccc(O)c(O)c1)C(C)Cc1ccc(O)c(O)c1 (stereo not drawn) [NDGA] was tested, and the Toxicity (HeLa cells [4]) was “some toxicity”, the “Relative potency of antioxidants in inhibiting IL-8 response to S1P” value (HeLa cells [3]; S1P 1 μM) was “more potent than the hydrophilic NAC” and the “Inhibition of IL-8 response to S1P at 40 μM” value (HeLa cells [3]; S1P 1 μM, NDGA 40 μM) was “completely inhibited the IL-8 response to S1P”. The “Inhibition of IL-8 response to S1P by antioxidants” value (HeLa cells [3]; [5]) was “significantly inhibited”.

For CCCCCCCCCCCCC/C=C/[C@@H](O)[C@@H](N)CO[C@@H]1O[C@H](CO)[C@H](O)[C@H](O)[C@H]1O [Psychosine], the “Cytotoxicity (qualitative)” value ([2]; higher concentrations) was “cytotoxicity at higher concentrations”, the EC50 (human EDG-4) was over 10 µM and the “Agonist character at EDG-4” value (human EDG-4) was “poor potency and efficacy”. The “Rank (EMax)” value (human EDG-4) was 5 and the “IL-8 response (qualitative)” value [1] was “Marginal increases”.

With Cc1ccc(C(=O)Nc2ccc(S(=O)(=O)O)c3cc(S(=O)(=O)O)cc(S(=O)(=O)O)c23)cc1NC(=O)c1cccc(NC(=O)Nc2cccc(C(=O)Nc3cc(C(=O)Nc4ccc(S(=O)(=O)O)c5cc(S(=O)(=O)O)cc(S(=O)(=O)O)c45)ccc3C)c2)c1 [Suramin] the “Inhibition of the IL-8 response to edelfosine” value (HeLa cells [3]; PTX 50 ng/ml or suramin 1 mg/ml) was “potently inhibited” and the “Effect of suramin on IL-8 response to S1P” value (HeLa cells [3]; S1P 1 μM, suramin 1 mg/ml, 30 minute pre-treatment) was “extremely effective in blunting the IL-8 response to S1P”.

In the case of CCCCCCCCCCCCCC(=O)O[C@@H]1[C@@H](C)[C@@]2(O)[C@@H](C=C(CO)C[C@]3(O)C(=O)C(C)=C[C@@H]23)[C@H]2C(C)(C)[C@]12OC(C)=O [TPA], the “NF-κB reporter induction (qualitative)” value (rat edg4) is reported as “strongly induced the NF-κB reporter”.

CCCCC/C=C\C/C=C\C/C=C\C/C=C\CCCC(=O)NCCO [anandamide] was tested, and the “IL-8 response (qualitative)” value [1] was “no response”.

In the case of CCCCCCCCCCCCC/C=C/[C@@H](O)[C@@H](N)CO [sphingosine, Sphingosine], the “IL-8 production (ligand selectivity)” value (HeLa cells [3]; 6 hours, 10-5000 nM or 0.3 and 3 μM) is reported as “lack of response”.

TNF-α was tested, and the IL-8 release (HL-60 cells) was “releasing IL-8”.
